Our source for the IC50 values is BindingDB's records for doi:10.1073/pnas.0609757104 (University of Central Florida College of Medicine, 2007).

In the experiment the target is T1, Signal transducer and activator of transcription 1-alpha/beta (Homo sapiens, UniProt P42224).
T1 sequence (P42224 whole entry): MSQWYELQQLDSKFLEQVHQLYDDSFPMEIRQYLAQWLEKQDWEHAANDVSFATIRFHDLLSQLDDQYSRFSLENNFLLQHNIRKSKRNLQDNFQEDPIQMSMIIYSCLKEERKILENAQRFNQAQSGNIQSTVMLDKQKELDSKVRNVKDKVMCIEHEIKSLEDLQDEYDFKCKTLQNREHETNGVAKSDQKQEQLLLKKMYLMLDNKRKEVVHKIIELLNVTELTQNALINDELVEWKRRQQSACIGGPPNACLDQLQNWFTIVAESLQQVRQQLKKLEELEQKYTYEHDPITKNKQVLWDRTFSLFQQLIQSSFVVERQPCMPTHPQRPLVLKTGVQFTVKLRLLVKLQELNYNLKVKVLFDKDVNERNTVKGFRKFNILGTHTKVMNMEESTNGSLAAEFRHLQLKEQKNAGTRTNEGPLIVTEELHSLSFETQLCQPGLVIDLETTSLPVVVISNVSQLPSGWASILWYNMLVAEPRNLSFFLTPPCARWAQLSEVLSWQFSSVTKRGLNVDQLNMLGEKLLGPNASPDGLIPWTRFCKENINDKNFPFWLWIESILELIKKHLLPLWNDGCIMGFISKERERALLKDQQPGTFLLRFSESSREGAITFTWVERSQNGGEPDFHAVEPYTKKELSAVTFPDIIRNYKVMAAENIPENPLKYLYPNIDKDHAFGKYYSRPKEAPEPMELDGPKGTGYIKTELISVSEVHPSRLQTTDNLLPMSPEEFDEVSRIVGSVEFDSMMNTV
Kind of experiment: Electrophoretic Mobility Shift Assay (EMSA). The following applies: pH 7.8; 22 °C. How it is done:
STAT proteins were expressed in Sf9 cells from a baculovirus encoding the recombinant protein. A nuclear extract of the Sf9 cells was incubated with 32P-labeled high affinity c-fos sis inducible element (hSIE) either alone or in the presence of inhibitor. After incubation, samples were electrophoresed on polyacrylamide gels. The gels were dried, exposed to a phosphorimager screen and scanned. IC50 values were derived from plots of spot intensity versus phosphopeptide concentration. The affinity of peptides to the SH2 domain is measured by the intensity of the radioactivity of the Stat-DNA complex band in the electrophoresis gel.
In general terms: Mobility shift assays separate free from complexed probe on a gel.

Some results are limits rather than exact numbers.

As to `Cc1ccc(S(=O)(=O)OCC(=O)Nc2ccc(C(=O)O)c(O)c2)cc1` [2-hydroxy-4-(2-{[(4-methylbenzene)sulfonyl]oxy}acetamido)benzoic acid], the half-maximal inhibitory concentration (IC50) (usually the point on the concentration scale where inhibition reaches its midpoint) is greater than 300 µM.
